From patent US20250197374A1, “WEE1 DEGRADING COMPOUNDS AND USES THEREOF” (BRISTOL-MYERS SQUIBB COMPANY, priority 2023, published 2025)

Columns and labels:
Assay type in all cases: cell-based
WEE1 = target: T1, WEE1 (Homo sapiens, UniProt P30291+Q96SW2); assay: WEE1-ePL degradation assay (293T-LentiX, InCELL Hunter luminescence, 4 hr); conditions: for DC50: LentiX-HEK293T cells expressing WEE1-ePL, 4 hr incubation, read-out: 293T-LentiX WEE1-ePL Degradation 4 hr EC50; for 293T-LentiX WEE1-ePL Degradation 4 hr YMin (%): lower limit of fit, % of DMSO control signal remaining
T1 construct: C-terminal ePL-tagged (DiscoverX, Fremont, CA) full-length WEE1 expression construct; expressed in transfected cells; host or cells: LentiX-HEK293T (Invitrogen), lentivirally transduced; the cells also over-express GSPT1-GN
Method in brief: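 EC50 comes from a four-parameter logistic fit of ePL luminescence (InCELL Hunter), with DMSO control defining Ymax. Compounds ran as 10-point 3-fold dilutions from 1 or 10 µM for 4 h at 37 °C. Cells were HEK293T-LentiX with ePL-tagged full-length WEE1 and over-expressed Cereblon-resistant GSPT1-GN.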

MKN45 cells = assay: MKN45 cell proliferation assay (Cell-Titer-Glo, 120 hr); conditions: for EC50: Homo sapiens, MKN-45, 120 h, read-out: MKN45 Cell Prolif. 120 hr EC50; for MKN45 Cell Prolif. 120 hr YMin (%): minimal percent of DMSO control observed
Method in brief: (§1)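 Growth inhibition was read as CellTiter-Glo luminescence after 120 h at 37 °C in RPMI/10% FBS, with 400 MKN45 or 800 MDA-MB-231 cells seeded per well. Compounds were tested in 10-point half-log series starting at 1 or 10 uM (0.1% DMSO), in triplicate for MKN45 and duplicate for MDA-MB-231. EC50 values are four-parameter fits to %DMSO control, and Ymin-obs is the minimal observed %DMSO.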

MDA-MB-231 cells = assay: MDA-MB-231 cell proliferation assay (Cell-Titer-Glo, 120 hr); conditions: for EC50: Homo sapiens, MDA-MB-231, 120 h, read-out: MDA-MB 231 Cell Prolif. 120 hr EC50; for MDA-MB 231 Cell Prolif. 120 hr YMin (%): minimal percent of DMSO control observed
Method in brief: as §1

T1 sequence (P30291 whole entry): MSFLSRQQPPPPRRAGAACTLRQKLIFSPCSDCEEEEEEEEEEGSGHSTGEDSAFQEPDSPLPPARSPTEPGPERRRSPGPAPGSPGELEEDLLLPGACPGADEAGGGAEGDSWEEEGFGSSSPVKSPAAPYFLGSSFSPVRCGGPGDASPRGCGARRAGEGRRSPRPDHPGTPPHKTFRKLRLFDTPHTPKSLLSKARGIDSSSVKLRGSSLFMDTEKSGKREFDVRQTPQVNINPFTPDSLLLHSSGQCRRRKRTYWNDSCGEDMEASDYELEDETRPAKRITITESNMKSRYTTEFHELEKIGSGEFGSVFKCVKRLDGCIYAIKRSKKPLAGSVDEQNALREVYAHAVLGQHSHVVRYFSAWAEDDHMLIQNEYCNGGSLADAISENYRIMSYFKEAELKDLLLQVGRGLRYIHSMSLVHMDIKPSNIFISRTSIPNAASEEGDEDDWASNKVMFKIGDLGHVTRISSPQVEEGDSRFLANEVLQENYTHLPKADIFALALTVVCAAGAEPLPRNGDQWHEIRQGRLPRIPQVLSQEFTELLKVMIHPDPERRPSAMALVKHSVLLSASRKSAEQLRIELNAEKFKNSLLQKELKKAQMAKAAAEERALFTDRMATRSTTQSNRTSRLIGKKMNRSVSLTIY
T1 sequence (Q96SW2 whole entry): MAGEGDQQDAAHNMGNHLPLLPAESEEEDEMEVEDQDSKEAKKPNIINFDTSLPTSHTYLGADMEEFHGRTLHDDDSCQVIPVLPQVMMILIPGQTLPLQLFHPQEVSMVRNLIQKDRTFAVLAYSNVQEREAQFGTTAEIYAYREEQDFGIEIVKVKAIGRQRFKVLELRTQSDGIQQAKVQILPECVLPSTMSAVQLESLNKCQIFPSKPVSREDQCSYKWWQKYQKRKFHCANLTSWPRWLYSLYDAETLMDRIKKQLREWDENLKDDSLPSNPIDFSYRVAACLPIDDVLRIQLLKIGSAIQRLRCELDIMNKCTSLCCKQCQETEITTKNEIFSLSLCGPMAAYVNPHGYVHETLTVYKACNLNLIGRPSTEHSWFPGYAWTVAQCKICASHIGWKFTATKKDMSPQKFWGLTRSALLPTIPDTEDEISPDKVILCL
T1 sequence (Q16531 whole entry partner): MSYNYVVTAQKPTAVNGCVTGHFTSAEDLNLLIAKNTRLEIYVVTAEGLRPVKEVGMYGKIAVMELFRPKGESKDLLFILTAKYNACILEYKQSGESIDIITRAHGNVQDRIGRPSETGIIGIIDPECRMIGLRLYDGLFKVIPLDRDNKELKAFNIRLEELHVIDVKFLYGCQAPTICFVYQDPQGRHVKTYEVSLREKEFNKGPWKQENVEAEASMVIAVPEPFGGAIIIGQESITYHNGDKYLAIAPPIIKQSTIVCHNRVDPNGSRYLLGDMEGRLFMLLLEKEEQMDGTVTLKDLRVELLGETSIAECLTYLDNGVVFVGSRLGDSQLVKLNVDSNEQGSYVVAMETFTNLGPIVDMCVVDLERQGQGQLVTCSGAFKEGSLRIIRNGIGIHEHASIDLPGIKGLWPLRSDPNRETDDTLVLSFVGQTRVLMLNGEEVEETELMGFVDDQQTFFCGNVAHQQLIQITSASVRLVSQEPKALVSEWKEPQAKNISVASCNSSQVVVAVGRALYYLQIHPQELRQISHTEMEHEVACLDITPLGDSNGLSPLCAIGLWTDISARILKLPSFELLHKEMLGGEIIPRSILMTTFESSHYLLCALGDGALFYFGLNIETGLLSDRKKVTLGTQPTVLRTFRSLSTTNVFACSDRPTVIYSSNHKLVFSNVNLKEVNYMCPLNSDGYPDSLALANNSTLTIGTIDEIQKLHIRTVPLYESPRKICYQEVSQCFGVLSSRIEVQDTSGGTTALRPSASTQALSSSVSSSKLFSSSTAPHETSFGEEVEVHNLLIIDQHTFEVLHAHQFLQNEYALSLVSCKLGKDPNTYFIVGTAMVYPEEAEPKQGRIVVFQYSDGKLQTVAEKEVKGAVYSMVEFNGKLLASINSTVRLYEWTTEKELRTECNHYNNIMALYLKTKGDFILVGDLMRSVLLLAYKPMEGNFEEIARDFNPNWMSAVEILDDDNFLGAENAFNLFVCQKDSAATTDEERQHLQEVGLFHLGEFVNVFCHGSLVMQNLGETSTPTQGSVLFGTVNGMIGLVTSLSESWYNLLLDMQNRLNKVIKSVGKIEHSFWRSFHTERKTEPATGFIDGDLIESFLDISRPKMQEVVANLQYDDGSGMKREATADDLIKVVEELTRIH

| SMILES | DC50 (WEE1) [nM] | 293T-LentiX WEE1-ePL Degradation 4 hr YMin (%) (WEE1) | EC50 (MKN45 cells) [nM] | MKN45 Cell Prolif. 120 hr YMin (%) (MKN45 cells) | EC50 (MDA-MB-231 cells) [nM] | MDA-MB 231 Cell Prolif. 120 hr YMin (%) (MDA-MB-231 cells) |
| --- | --- | --- | --- | --- | --- | --- |
| COC[C@@H]1CN(Cc2cc(F)c3nc(C4(O)CCOCC4)ccc3c2)C[C@H]1Oc1ccc2c(c1)CN([C@H]1CCC(=O)NC1=O)C2=O [Example 60, (3S)-3-(5-{[(3S,4S)-1-{[8-fluoro-2-(4-hydroxyoxan-4-yl)quinolin-6-yl]methyl}-4-(methoxymethyl)pyrrolidin-3-yl]oxy}-1-oxo-2,3-dihydro-1H-isoindol-2-yl)piperidine-2,6-dione] | 1 | 27.4 | 3 | 11.7 | 54 | 33.7 |
| COC[C@@H]1CN(Cc2cc(F)c3nc(C4CC(C)(C)OC(C)(C)C4)ccc3c2)C[C@H]1Oc1ccc2c(c1)CN([C@H]1CCC(=O)NC1=O)C2=O [Example 53, (3S)-3-(5-{[(3S,4S)-1-{[8-fluoro-2-(2,2,6,6-tetramethyloxan-4-yl)quinolin-6-yl]methyl}-4-(methoxymethyl)pyrrolidin-3-yl]oxy}-1-oxo-2,3-dihydro-1H-isoindol-2-yl)piperidine-2,6-dione] |  | 27.9 |  | 10.5 | 8 | 13.4 |
| COC[C@@H]1CN(Cc2ccc3nc(N4CCN(C5COC5)CC4)ccc3c2)C[C@H]1Oc1ccc2c(c1)CN([C@H]1CCC(=O)NC1=O)C2=O [Example 104, (3S)-3-(5-{[(3S,4S)-4-(methoxymethyl)-1-({2-[4-(oxetan-3-yl)piperazin-1-yl]quinolin-6-yl}methyl)pyrrolidin-3-yl]oxy}-1-oxo-2,3-dihydro-1H-isoindol-2-yl)piperidine-2,6-dione] |  | 21.3 | 1 | 8.2 | 18 | 42.5 |
| COC[C@@H]1CN(Cc2ccc3ncc(N4CCOCC4)cc3c2)C[C@H]1Oc1ccc2c(c1)CN([C@H]1CCC(=O)NC1=O)C2=O [Example 29, (3S)-3-(5-{[(3S,4S)-4-(methoxymethyl)-1-{[3-(morpholin-4-yl)quinolin-6-yl]methyl}pyrrolidin-3-yl]oxy}-1-oxo-2,3-dihydro-1H-isoindol-2-yl)piperidine-2,6-dione] | 1 | 26.4 | 2 | 8.8 | 25 | 17.8 |
| COC[C@@H]1CN(Cc2cc3ccc(C4CCC(C(C)(C)O)CC4)cc3cn2)C[C@H]1Oc1ccc2c(c1)CN([C@H]1CCC(=O)NC1=O)C2=O (relative stereo) [Example 112, rel-(S)-3-(5-(((3S,4S)-1-((7-(4-(2-hydroxypropan-2-yl)cyclohexyl)isoquinolin-3-yl)methyl)-4-(methoxymethyl)pyrrolidin-3-yl)oxy)-1-oxoisoindolin-2-yl)piperidine-2,6-dione] | 1 | 28.0 |  | 8.7 | 12 | 25.2 |
| O=C1CC[C@H](N2Cc3cc(O[C@H]4CN(Cc5cc(F)c6nc(C7CCOCC7)ccc6c5)C[C@@H]4C4CCCC4)ccc3C2=O)C(=O)N1 (relative stereo) [Example 146, (S)-3-(5-(((3R*,4S*)-4-Cyclopentyl-1-((8-fluoro-2-(tetrahydro-2H-pyran-4-yl)-quinolin-6-yl)methyl)pyrrolidin-3-yl)oxy)-1-oxoisoindolin-2-yl)piperidine-2,6-dione] | 1 | 24.2 | 3 | 10.8 | 585 | 50.7 |
| COC[C@@H]1CN(Cc2cc(F)c3nc(N4CCC(O)CC4)ncc3c2)C[C@H]1Oc1ccc2c(c1)CN([C@H]1CCC(=O)NC1=O)C2=O [Example 63, (3S)-3-(5-{[(3S,4S)-1-{[8-fluoro-2-(4-hydroxypiperidin-1-yl)quinazolin-6-yl]methyl}-4-(methoxymethyl)pyrrolidin-3-yl]oxy}-1-oxo-2,3-dihydro-1H-isoindol-2-yl)piperidine-2,6-dione] | 3 | 29.2 | 2 | 9.2 | 42 | 22.6 |
| COC[C@@H]1CN(Cc2cc(F)c3nc(N4CCN(CC(F)(F)F)CC4)ccc3c2)C[C@H]1Oc1ccc2c(c1)CN([C@H]1CCC(=O)NC1=O)C2=O [Example 44, (3S)-3-(5-{[(3S,4S)-1-({8-fluoro-2-[4-(2,2,2-trifluoroethyl)piperazin-1-yl]quinolin-6-yl}methyl)-4-(methoxymethyl)pyrrolidin-3-yl]oxy}-1-oxo-2,3-dihydro-1H-isoindol-2-yl)piperidine-2,6-dione] | 1 | 27.8 | 1 | 8.9 | 14 | 22.3 |
| COC[C@@H]1CN(Cc2cc(F)c3nc(N4CCN(C5COC5)CC4)ccc3c2)C[C@H]1Oc1ccc2c(c1)CN([C@H]1CCC(=O)NC1=O)C2=O [Example 142, (3S)-3-(5-{[(3S,4S)-1-({8-fluoro-2-[4-(oxetan-3-yl)piperazin-1-yl]quinolin-6-yl}methyl)-4-(methoxymethyl)pyrrolidin-3-yl]oxy}-1-oxo-2,3-dihydro-1H-isoindol-2-yl)piperidine-2,6-dione] |  | 19.9 | 1 | 7.1 | 24 | 43.3 |
| COC[C@@H]1CN(Cc2cc(F)c3nc(C4CCC(C(C)(C)O)CC4)ncc3c2)C[C@H]1Oc1ccc2c(c1)CN([C@H]1CCC(=O)NC1=O)C2=O (relative stereo) [Example 111, rel-(S)-3-(5-(((3S,4S)-1-((8-fluoro-2-(4-(2-hydroxypropan-2-yl)cyclohexyl)quinazolin-6-yl)methyl)-4-(methoxymethyl)pyrrolidin-3-yl)oxy)-1-oxoisoindolin-2-yl)piperidine-2,6-dione] | 1 | 27.1 | 1 | 7.8 | 26 | 16.4 |
| COC[C@@H]1CN(Cc2ccc3ccc(N4CCOCC4)nc3c2)C[C@H]1Oc1ccc2c(c1)CN([C@H]1CCC(=O)NC1=O)C2=O [Example 108, (3S)-3-(5-{[(3S,4S)-4-(methoxymethyl)-1-{[2-(morpholin-4-yl)quinolin-7-yl]methyl}pyrrolidin-3-yl]oxy}-1-oxo-2,3-dihydro-1H-isoindol-2-yl)piperidine-2,6-dione] | 8 | 61.2 | 340 | 89.6 | 3100 | 82.8 |
| COC[C@@H]1CN(Cc2cc3ccc(C4CCN(CC(F)(F)F)CC4)cc3cn2)C[C@H]1Oc1ccc2c(c1)CN([C@H]1CCC(=O)NC1=O)C2=O [Example 38, (3S)-3-(5-{[(3S,4S)-4-(methoxymethyl)-1-({7-[1-(2,2,2-trifluoroethyl)piperidin-4-yl]isoquinolin-3-yl}methyl)pyrrolidin-3-yl]oxy}-1-oxo-2,3-dihydro-1H-isoindol-2-yl)piperidine-2,6-dione] | 1 | 28.0 |  | 9.8 | 19 | 21.6 |
| O=C1CC[C@H](N2Cc3cc(O[C@H]4CCN(Cc5cc(F)c6nc(N7C[C@@H]8CCO[C@@H]8C7)ccc6c5)C4)ccc3C2=O)C(=O)N1 (single isomer, unassigned) [Example 81, (S)-3-(5-(((S)-1-((8-fluoro-2-((3aS*,6aS*)-hexahydro-5H-furo[2,3-c]pyrrol-5-yl)quinolin-6-yl)methyl)pyrrolidin-3-yl)oxy)-1-oxoisoindolin-2-yl)piperidine-2,6-dione] | 1 | 32.9 | 5 | 15.5 | 64 | 66.9 |
